Values quoted from earlier work as cited in patent US7094421B2, “Plaster containing 4-biphenylacetic acid” (Teikoku Seiyaki Co., Ltd., priority 2000, dated 2006).

Details: solvent crotamiton

O=C(O)Cc1ccc(-c2ccccc2)cc1 [4-biphenylacetic acid]
solubility of 4-biphenylacetic acid in crotamiton: about 7%
